Experimental data taken from US9233978B2, “6-fused heteroaryldihydropyrimidines for the treatment and prophylaxis of hepatitis B virus infection” (Hoffmann-La Roche Inc., priority 2014, dated 2016).

What follows are compounds tested on HBV (assay: Anti-HBV activity in vitro, HepG2.2.15 cells, extracellular HBV DNA by qPCR). Details: Hepatitis B virus, HepG2.2.15, 120 h, HepG2.2.15 cells; HBV replication inhibited by 50%, extracellular HBV DNA by qPCR; five days after compound treatment; read-out: EC50.
Assay type: cell-based
Source text: HepG2.2.15 and HepDE19 are stably-transfected cell lines containing the HBV genome. Both cell lines are derived from the hepatoblastoma cell line Hep G2 (American Type Culture Collection, ATCC® HB-8065™) by the published procedures described in references: MA Selles et al. Proc. Natl. Acad. Sci. USA 1987, 84, 1005-1009 and H Guo et al. Journal of Virology 2007, 81, 12472-12484, respectively. Both cell lines were maintained in Dulbecco's modified Eagle's medium (DMEM)-F12 medium supplemented with 10% fetal bovine serum, 100 U/mL penicillin, 100 μg/mL streptomycin, and 0.5 mg/mL of G418.
While HepG2.2.15 cells constitutively support HBV replication and production of virus particles, HepDE19 cells are inducible by tetracycline. Addition of 1 μg/mL tetracycline in culture medium suppresses HBV replication in HepDE19 cells, whereas switching to tetracycline-free medium resumes this process.
HepG2.2.15 cells were seeded into 96-well plates (3×10^4 cells in 100 μL media per well) and incubated overnight at 37° C. The test compounds were serially half-log diluted in DMSO, then diluted 100 times in culture media. 100 μL of diluted compounds were added into the plates to reach 0.5% final concentration of DMSO in every well. Five days after compound treatment, culture supernatant was collected for further analysis.
For quantitative PCR detection of extracellular HBV DNA, 100 μL of culture supernatant was collected and processed in MagNA Pure 96 Nucleic Acid Purification System (Roche Applied Science) for viral DNA extraction. The extracted samples were subjected to HBV DNA quantification by qPCR.

Going from `COC(=O)C1=C(CN2CCN3C(=O)N(CC(C)(C)C(=O)O)C[C@@H]3C2)NC(c2nccs2)=NC1c1ccc(Cl)cc1` (mixture of isomers) [Example 77, 3-[(8aS)-7-[[4-(4-chlorophenyl)-5-methoxycarbonyl-2-thiazol-2-yl-1,4-dihydropyrimidin-6-yl]methyl]-3-oxo-5,6,8,8a-tetrahydro-1H-imidazo[1,5-a]pyrazin-2-yl]-2,2-dimethyl-propanoic acid] to `CCOC(=O)C1=C(CN2CCN3C(=O)N(CC(C)(C)O)C[C@H]3C2)NC(c2nccs2)=N[C@H]1c1cccc(F)c1Cl` (single isomer, unassigned) [Example 106A], the EC50 falls from 146 nM to 32 nM (4.6-fold).

Compared with `CCOC(=O)C1=C(CN2CCN3C(=O)N(C(C)(C)C)C[C@@H]3[C@H]2C(=O)OC)NC(c2nccs2)=N[C@H]1c1cccc(F)c1Cl` (single isomer, unassigned) [Compound 87B-1], `CCOC(=O)C1=C(CN2CCN3C(=O)N(C(C)(C)C)C[C@H]3[C@@H]2C(=O)O)NC(c2nccs2)=N[C@H]1c1cccc(F)c1Cl` (single isomer, unassigned) [Example 87A] is 16-fold higher in EC50: 4 nM for the first, 62 nM for the second.

Compared with `COC(=O)C1=C(CN2CCN3C(=O)N(C(C)(C)C)C[C@H]3[C@@H]2C(=O)O)NC(c2nccs2)=N[C@H]1c1ccc(F)c(F)c1C` (single isomer, unassigned) [Example 88A], `CCOC(=O)C1=C(CN2CCN3C(=O)N(C)C[C@@H]3[C@H]2C(=O)O)NC(c2nccs2)=N[C@H]1c1cccc(F)c1Cl` (single isomer, unassigned) [Example 91A] is 4.5-fold lower in EC50: 677 nM for the first, 150 nM for the second. The second is the more potent here.

Going from `COC(=O)C1=C(CN2CCN3C(=O)OC(C)(C)[C@@]3(CC(=O)O)C2)NC(c2nccs2)=N[C@H]1c1ccc(F)cc1Cl` (single isomer, unassigned) [Example 90B] to `COC(=O)C1=C(CN2CCN3C(=O)OC[C@H]3C2)NC(c2nccs2)=N[C@H]1c1ccc(F)cc1Cl` [Example 3, Methyl (4R)-6-[[(8aR)-3-oxo-5,6,8,8a-tetrahydro-1H-oxazolo[3,4-a]pyrazin-7-yl]methyl]-4-(2-chloro-4-fluoro-phenyl)-2-thiazol-2-yl-1,4-dihydropyrimidine-5-carboxylate], the EC50 falls from 300 nM to 23 nM (13-fold).

`CCOC(=O)C1=C(CN2CCN3C(=O)N(CC4CC4)C[C@H]3[C@@H]2C(=O)O)NC(c2nccs2)=N[C@H]1c1cccc(F)c1Cl` (single isomer, unassigned) [Example 97A] and `CCOC(=O)C1=C(CN2CCN3C(=O)N(CC(C)C)C[C@H]3[C@@H]2C(=O)O)NC(c2nccs2)=N[C@H]1c1cccc(F)c1Cl` (single isomer, unassigned) [Example 101A] are within 1.5-fold of each other in EC50: 37 nM for the first, 40 nM for the second.

Going from `CCOC(=O)C1=C(CN2CCN3C(=O)OC[C@H]3[C@@H]2C(=O)O)NC(c2nccs2)=N[C@H]1c1cccc(F)c1Cl` (single isomer, unassigned) [Example 102A] to `CCOC(=O)C1=C(CN2CCN3C(=O)CCCC3C2)NC(c2nccs2)=N[C@H]1c1cccc(F)c1Cl` (stereo partly drawn) [Example 10, Ethyl (4R)-4-(2-chloro-3-fluoro-phenyl)-6-[(6-oxo-3,4,7,8,9,9a-hexahydro-1H-pyrido[1,2-a]pyrazin-2-yl)methyl]-2-thiazol-2-yl-1,4-dihydropyrimidine-5-carboxylate], the EC50 falls from 147 nM to 57 nM (2.6-fold). The second is the more potent here.

First: CCOC(=O)C1=C(CN2CCN3C(=O)N(C(C)(C)C)C[C@H]3[C@@H]2CO)NC(c2nccs2)=N[C@H]1c1cccc(F)c1Cl (single isomer, unassigned) [Example 103A]
Second: CCOC(=O)C1=C(CN2CCN3C(=O)N(C(C)(C)C)C[C@@H]3[C@H]2CO)NC(c2nccs2)=N[C@H]1c1cccc(F)c1Cl (single isomer, unassigned) [Example 103B]
The EC50 of the first is 14-fold higher: 140 nM for the first, 10 nM for the second. The second is the more potent here.

Going from `CCOC(=O)C1=C(CN2CCN3C(=O)N(C(C)C)C[C@H]3C2)NC(c2nccs2)=N[C@H]1c1cccc(F)c1Cl` (single isomer, unassigned) [Example 104A] to `CCOC(=O)C1=C(CN2CCN3C(=O)CC[C@@H]3C2)NC(c2nccs2)=N[C@H]1c1ccc(F)cc1Br` [Example 8, Ethyl (4R)-6-[[(8aR)-6-oxo-1,3,4,7,8,8a-hexahydropyrrolo[1,2-a]pyrazin-2-yl]methyl]-4-(2-bromo-4-fluoro-phenyl)-2-thiazol-2-yl-1,4-dihydropyrimidine-5-carboxylate], the EC50 falls from 131 nM to 11 nM (12-fold). The second is the more potent here.

Going from `COC(=O)C1=C(CN2CCN3C(=O)N([C@H]4C[C@@H](C(=O)O)C4)CC3C2)NC(c2nccs2)=N[C@H]1c1ccc(F)cc1Cl` (stereo in doubt) [Example 40, 3-[(8aR)-7-[[(4R)-4-(2-chloro-4-fluoro-phenyl)-5-methoxycarbonyl-2-thiazol-2-yl-1,4-dihydropyrimidin-6-yl]methyl]-3-oxo-5,6,8,8a-tetrahydro-1H-imidazo[1,5-a]pyrazin-2-yl]cyclobutanecarboxylic acid] to `COC(=O)C1=C(CN2CCN3C(=O)CC[C@H]3C2)NC(c2nccs2)=N[C@H]1c1ccc(F)cc1Cl` [Example 5, Methyl (4R)-6-[[(8aS)-6-oxo-1,3,4,7,8,8a-hexahydropyrrolo[1,2-a]pyrazin-2-yl]methyl]-4-(2-chloro-4-fluoro-phenyl)-2-thiazol-2-yl-1,4-dihydropyrimidine-5-carboxylate], the EC50 rises from 34 nM to 159 nM (4.7-fold).

First: COC(=O)C1=C(CN2CCN3C(=O)OCCC3C2)NC(c2nccs2)=N[C@H]1c1ccc(F)cc1Cl (stereo partly drawn) [Example 1, Methyl (4R)-4-(2-chloro-4-fluoro-phenyl)-6-[(6-oxo-1,3,4,8,9,9a-hexahydropyrazino[1,2-c][1,3]oxazin-2-yl)methyl]-2-thiazol-2-yl-1,4-dihydropyrimidine-5-carboxylate]
Second: COC(=O)C1=C(CN2CCN3C(=O)CC[C@@H]3C2)NC(c2nccs2)=N[C@H]1c1ccc(F)cc1Cl [Example 6, Methyl (4R)-6-[[(8aR)-6-oxo-1,3,4,7,8,8a-hexahydropyrrolo[1,2-a]pyrazin-2-yl]methyl]-4-(2-chloro-4-fluoro-phenyl)-2-thiazol-2-yl-1,4-dihydropyrimidine-5-carboxylate]
The EC50 of the first is 7.4-fold higher: 104 nM for the first, 14 nM for the second. The second is the more potent here.

First: COC(=O)C1=C(CN2CCN3C(=O)COCC3C2)NC(c2nccs2)=N[C@H]1c1ccc(F)cc1Cl (stereo partly drawn) [Example 2, Methyl (4R)-4-(2-chloro-4-fluoro-phenyl)-6-[(4-oxo-6,7,9,9a-tetrahydro-1H-pyrazino[2,1-c][1,4]oxazin-8-yl)methyl]-2-thiazol-2-yl-1,4-dihydropyrimidine-5-carboxylate]
Second: COC(=O)C1=C(CN2CCN3C(=O)NC[C@H]3C2)NC(c2nccs2)=N[C@H]1c1ccc(F)cc1Cl [Example 12, Methyl (4R)-6-[[(8aS)-3-oxo-1,2,5,6,8,8a-hexahydroimidazo[1,5-a]pyrazin-7-yl]methyl]-4-(2-chloro-4-fluoro-phenyl)-2-thiazol-2-yl-1,4-dihydropyrimidine-5-carboxylate]
The EC50 of the first is 2.8-fold lower: 54 nM for the first, 149 nM for the second.

First: COC(=O)C1=C(CN2CCN3C(=O)CC[C@@H]3C2)NC(c2nccs2)=N[C@H]1c1ccc(F)cc1Br [Example 7, Methyl (4R)-6-[[(8aR)-6-oxo-1,3,4,7,8,8a-hexahydropyrrolo[1,2-a]pyrazin-2-yl]methyl]-4-(2-bromo-4-fluoro-phenyl)-2-thiazol-2-yl-1,4-dihydropyrimidine-5-carboxylate]
Second: CCOC(=O)C1=C(CN2CCN3C(=O)NC[C@H]3C2)NC(c2nccs2)=N[C@H]1c1ccc(F)cc1Br [Example 13, Ethyl (4R)-6-[[(8aS)-3-oxo-1,2,5,6,8,8a-hexahydroimidazo[1,5-a]pyrazin-7-yl]methyl]-4-(2-bromo-4-fluoro-phenyl)-2-thiazol-2-yl-1,4-dihydropyrimidine-5-carboxylate]
The EC50 of the first is 4.7-fold lower: 14 nM for the first, 66 nM for the second.

Going from `CCOC(=O)C1=C(CN2CCN3C(=O)CC[C@@H]3C2)NC(c2nccs2)=N[C@H]1c1ccc(F)c(F)c1` [Example 9, Ethyl (4 S)-6-[[(8aR)-6-oxo-1,3,4,7,8,8a-hexahydropyrrolo[1,2-a]pyrazin-2-yl]methyl]-4-(3,4-difluorophenyl)-2-thiazol-2-yl-1,4-dihydropyrimidine-5-carboxylate] to `COC(=O)C1=C(CN2CCN3C(=O)NC(=O)[C@H]3C2)NC(c2nccs2)=N[C@H]1c1ccc(F)cc1Cl` [Example 15, Methyl (4R)-6-[[(8aR)-1,3-dioxo-5,6,8,8a-tetrahydroimidazo[1,5-a]pyrazin-7-yl]methyl]-4-(2-chloro-4-fluoro-phenyl)-2-thiazol-2-yl-1,4-dihydropyrimidine-5-carboxylate], the EC50 rises from 64 nM to 110 nM (1.7-fold). The first is the more potent here.

`COC(=O)C1=C(CN2CCN3C(=O)NC(=O)[C@@H]3C2)NC(c2nccs2)=N[C@H]1c1ccc(F)cc1Cl` [Example 16, Methyl (4R)-6-[[(8aS)-1,3-dioxo-5,6,8,8a-tetrahydroimidazo[1,5-a]pyrazin-7-yl]methyl]-4-(2-chloro-4-fluoro-phenyl)-2-thiazol-2-yl-1,4-dihydropyrimidine-5-carboxylate] was tested, and the EC50 was 41 nM.
